Reference: article PMC7365463, “Oxfendazole mediates macrofilaricidal efficacy against the filarial nematode Litomosoides sigmodontis in vivo and inhibits Onchocerca spec. motility in vitro” (PLoS Neglected Tropical Diseases, 2020)
Like-named read-outs stand apart in the source and are kept apart here.

Experiments:
[1] = rats; cited from earlier work
[2] = test system: Brugia pahangi; design: method as in Reddy 1983 (Ref. 15); conditions: L3 (SC), Mastomys natalensis, patent phase, necropsy 43 days p.t., ref Reddy 1983 (Ref. 15), cited from earlier work
[3] = test system: Brugia pahangi; conditions: jirds, necropsy 5 weeks p.t., ref Surin 1990 (Ref. 11), cited from earlier work
[4] = design: method as in earlier work; conditions: in vivo, lack of potential for aneuploidy; cited from earlier work
[5] = test system: Onchocerca gutturosa adult male worms; assay: O. gutturosa adult worm MTT/formazan viability assay; conditions: 120 h
[6] = test system: mouse lymphoma assay; design: method as in earlier work; conditions: in vitro; cited from earlier work
[7] = test system: Litomosoides sigmodontis; design: method as in Reddy 1983 (Ref. 15); conditions: L3 (mite), Mastomys natalensis, patent phase, necropsy 43 days p.t., ref Reddy 1983 (Ref. 15), cited from earlier work
[8] = design: method as in earlier work; conditions: dogs; cited from earlier work
[9] = test system: Onchocerca lienalis microfilariae; assay: O. lienalis microfilariae 5-day motility assay; conditions: 120 h
[10] = test system: mammalian tubulin; design: method as in PMID 6712717, PMID 1554382; conditions: cited from earlier work
[11] = test system: Litomosoides sigmodontis; assay: Patent L. sigmodontis infection in jirds (adult worms, microfilaremia, embryogenesis); conditions: for jirds with few microfilariae in the peripheral blood: between weeks 14 and 16 after treatment
[12] = Bioavailability in dog (in-house); conditions: in vivo, oral, in-house data at high dose of 25 mg/kg, read-out: Bioavailability (F)
Excerpt: Table 1 Human pharmacokinetic prediction for oxfendazole.

[13] = human
[14] = test system: Onchocerca gutturosa adult male worms; assay: O. gutturosa adult male worm 5-day motility assay

COC(=O)Nc1nc2ccc([S+]([O-])c3ccccc3)cc2[nH]1 (stereo not drawn) [oxfendazole]
subacute toxicity, behavioral effects [1]: did not raise safety concerns | Reduction of worm burden ([2]; SC 100mg/kg 5 cons. days): 0% | Reduction of worm burden ([2]; per os 150mg/kg 5 cons. days): 33% | Reduction of worm burden ([3]; 15Ad (IP), SC 50-25-12.5mg/kg 5 cons. days, 4 days p.i.): 100% | Reduction of worm burden ([3]; 50L3 (IP), SC 25mg/kg 5 cons. days, 70 days p.i.): 93.5% | Reduction of worm burden ([3]; 50L3 (IP), SC 50mg/kg 5 cons. days, 70 days p.i.): 100% | rat micronucleus assay outcome [4]: confirmed the in vitro results | MTT Reduction (%) ([5]; 1.25 x 10^-5 M): 12% | MTT Reduction (%) ([5]; 3.1 x 10^-6 M): 17% | MTT Reduction (%) ([5]; 5.0 x 10^-5 M): 11% | MTT Reduction (%) ([5]; 7.8 x 10^-7 M): 7% | Half-Life (HL), via predicted Vss/CL (human): 14.4 h | Half-Life (HL), dog-hum correlation (human prediction): 4.2 h | Half-Life (HL), rat-hum correlation (human prediction): 12.1 h | predicted human clearance as share of liver blood flow (human prediction): ~ 2 % liver blood flow | toxicity in mouse lymphoma assay [6]: did not exhibit toxicity | Reduction of worm burden ([7]; SC 100mg/kg 5 cons. days): 100% | Reduction of worm burden ([7]; per os 150mg/kg 5 cons. days): 0% | cardiovascular effects [8]: did not raise safety concerns | microfilariae motility decrease ([9]; 1.25·10^−5 M): 53% | microfilariae motility decrease ([9]; 5·10^−5 M): 67% | effect on microfilariae motility ([9]; concentrations lower than 1.25·10^−5 M): No effect | affinity to mammalian tubulin [10]: weak affinity | jirds with few microfilariae in the peripheral blood ([11]; 2 x 5 mg/kg BID PO 10 days): one jird out of four | jirds with few microfilariae in the peripheral blood ([11]; 2 x 12.5 mg/kg BID PO 10 days): one jird out of five | embryogenesis in recovered female worms (embryogram) ([11]; jirds, 2 x 5 mg/kg BID PO 10 days, 16 weeks after treatment start): embryogenesis was inhibited | animals with complete clearance of adult worms ([11]; jirds, PO BID 2 x 5 mg/kg for 10 days from 12 wpi, 16 weeks after treatment start): two animals out of four | animals with complete clearance of adult worms ([11]; jirds, PO BID 2 x 12.5 mg/kg for 10 days from 12 wpi, 16 weeks after treatment start): four animals out of five | microfilariae cleared from the peripheral blood ([11]; jirds, both oxfendazole groups (2 x 12.5 and 2 x 5 mg/kg BID PO 10 days), 3 weeks after treatment): more than 99% | bioavailability [12]: ~10% | clearance [13]: ~0.4 mL/min/kg | Vd ([13]; Vol. of Distribution (Vss), Final): ~0.5 L/kg | CLhep predicted ([13]; hepatocytes): 0.4 mL/min/kg | bioavailability ([13]; po): 30% | Motility Reduction (%) ([14]; 1.25 x 10^-5 M, 24 h): 10% | Motility Reduction (%) ([14]; 1.25 x 10^-5 M, 48 h): 3% | Motility Reduction (%) ([14]; 1.25 x 10^-5 M, 72 h): 23% | Motility Reduction (%) ([14]; 1.25 x 10^-5 M, 96 h): 31% | Motility Reduction (%) ([14]; 1.25 x 10^-5 M, 120 h): 40% | Motility Reduction (%) ([14]; 3.1 x 10^-6 M, 24 h): 10% | Motility Reduction (%) ([14]; 3.1 x 10^-6 M, 48 h): 5% | Motility Reduction (%) ([14]; 3.1 x 10^-6 M, 72 h): 33% | Motility Reduction (%) ([14]; 3.1 x 10^-6 M, 96 h): 31% | Motility Reduction (%) ([14]; 3.1 x 10^-6 M, 120 h): 40% | Motility Reduction (%) ([14]; 5.0 x 10^-5 M, 24 h): 16% | Motility Reduction (%) ([14]; 5.0 x 10^-5 M, 48 h): 9% | Motility Reduction (%) ([14]; 5.0 x 10^-5 M, 72 h): 29% | Motility Reduction (%) ([14]; 5.0 x 10^-5 M, 96 h): 33% | Motility Reduction (%) ([14]; 5.0 x 10^-5 M, 120 h): 44% | Motility Reduction (%) ([14]; 7.8 x 10^-7 M, 24 h): 4% | Motility Reduction (%) ([14]; 7.8 x 10^-7 M, 48 h): 5% | Motility Reduction (%) ([14]; 7.8 x 10^-7 M, 72 h): 20% | Motility Reduction (%) ([14]; 7.8 x 10^-7 M, 96 h): 31% | Motility Reduction (%) ([14]; 7.8 x 10^-7 M, 120 h): 38%
